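All cell lines were grown in 96-well plates and treated with compound for 48 hours. GI50 marks 50% less growth.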 Activity calls are given as the source filed them. No stated cut-off is given here; in the data, active = GI50 up to about 1.1 µM and inactive = higher.
Tests used:
Test in all cases: growth of human tumour cells (NCI), 48 h
[1] = tested on: 786-0
[2] = tested on: A498
[3] = tested on: A549
[4] = tested on: ACHN
[5] = tested on: BT-549
[6] = tested on: CAKI-1
[7] = tested on: CCRF-CEM
[8] = tested on: COLO 205
[9] = tested on: DLD-1
[10] = tested on: DMS-114
[11] = tested on: DMS-273
[12] = tested on: DU-145
[13] = tested on: EKVX
[14] = tested on: HCC 2998
[15] = tested on: HCT-116
[16] = tested on: HCT-15
[17] = tested on: HL-60
[18] = tested on: HOP-18
[19] = tested on: HOP-62
[20] = tested on: HOP-92
[21] = tested on: HT-29
[22] = tested on: Hs-578T
[23] = tested on: IGROV-1
[24] = tested on: K562
[25] = tested on: KM12
[26] = tested on: LOX IMVI
[27] = tested on: LXFL 529
[28] = tested on: M14
[29] = tested on: M19-MEL
[30] = tested on: MCF7
[31] = tested on: MDA-MB-231
[32] = tested on: MDA-MB-435
[33] = tested on: MDA-N
[34] = tested on: MOLT-4
[35] = tested on: Malme-3M
[36] = tested on: NCI-H226
[37] = tested on: NCI-H23
[38] = tested on: NCI-H460
[39] = tested on: NCI-H522
[40] = tested on: NCI/ADR-RES
[41] = tested on: OVCAR-3
[42] = tested on: OVCAR-4
[43] = tested on: OVCAR-5
[44] = tested on: OVCAR-8
[45] = tested on: PC-3
[46] = tested on: RPMI-8226
[47] = tested on: RXF 393
[48] = tested on: SF-268
[49] = tested on: SF-295
[50] = tested on: SF-539
[51] = tested on: SK-MEL-28
[52] = tested on: SK-MEL-2
[53] = tested on: SK-MEL-5
[54] = tested on: SK-OV-3
[55] = tested on: SN12C
[56] = tested on: SNB-19
[57] = tested on: SNB-75
[58] = tested on: SNB-78
[59] = tested on: SR
[60] = tested on: SW-620
[61] = tested on: T47D
[62] = tested on: TK-10
[63] = tested on: U-251
[64] = tested on: UACC-257
[65] = tested on: UACC-62
[66] = tested on: UO-31
[67] = tested on: XF498
[68] = tested on: KM-20L2

Measured: GI50

CC(=O)OC1=CC(n2cc(F)c(=O)[nH]c2=O)OC(C)C1=O (configuration not stated)
inactive: [1] 26.4 µM | [2] 10.4 µM | [3] 7.29 µM | [4] 18.4 µM | [5] 22.2 µM | [6] > 52.2 µM | [7] 75 µM | [8] 15.3 µM | [9] 97.3 µM | [10] 99.3 µM | [11] 41.5 µM | [12] 21.6 µM | [13] > 88.5 µM | [14] 5.26 µM | [15] 10.8 µM | [17] 21.4 µM | [18] > 100 µM | [19] 23.7 µM | [20] > 33.2 µM | [21] 10.7 µM | [22] > 88.3 µM | [23] 30.5 µM | [24] 57 µM | [25] 22.8 µM | [26] 14.6 µM | [27] > 100 µM | [28] 61.2 µM | [29] 90.8 µM | [30] 4.28 µM | [31] > 88.7 µM | [32] 11.4 µM | [33] 15.2 µM | [34] 39.8 µM | [35] 19.6 µM | [36] > 97.3 µM | [37] 19.1 µM | [38] 4.59 µM | [39] > 95.5 µM | [40] 40.2 µM | [41] 25.3 µM | [42] > 82.2 µM | [43] 49.8 µM | [44] 40.7 µM | [45] 53 µM | [46] 26.5 µM | [47] 55.3 µM | [48] 81.5 µM | [49] 48.9 µM | [50] 3.01 µM | [51] 17.7 µM | [52] > 100 µM | [53] 13.2 µM | [54] 99.1 µM | [55] 67.8 µM | [56] 61.9 µM | [57] 51.1 µM | [58] > 100 µM | [59] 26.1 µM | [60] 59 µM | [61] 16.7 µM | [62] > 77.4 µM | [63] > 85.7 µM | [64] 57.1 µM | [65] 24.9 µM | [66] 13.5 µM | [67] > 100 µM
8.95 µM: [16]

Nc1c(-c2ccc(-c3c(N)[n+]([O-])c4ccccc4[n+]3[O-])cc2)[n+]([O-])c2ccccc2[n+]1[O-]
inactive: [1] 13.5 µM | [2] 18.3 µM | [3] 20.9 µM | [4] 16.2 µM | [6] 6.65 µM | [7] 38.7 µM | [8] 10.1 µM | [9] 11.8 µM | [10] 3.4 µM | [11] 14.2 µM | [13] 31.8 µM | [14] 15.1 µM | [17] 13.9 µM | [18] 7.67 µM | [19] 17.8 µM | [20] > 100 µM | [21] 12.1 µM | [23] 17.7 µM | [24] 15.7 µM | [68] > 10 µM | [25] 11.1 µM | [26] 9.75 µM | [27] 7.87 µM | [28] 12.2 µM | [29] 11.3 µM | [34] 33.3 µM | [35] 3.02 µM | [36] 20.6 µM | [37] 6.21 µM | [38] 14.3 µM | [39] 1.6 µM | [41] 15.7 µM | [42] 17.7 µM | [43] 20.5 µM | [44] 18.9 µM | [46] 23.8 µM | [48] 17.2 µM | [49] 16 µM | [50] 4.92 µM | [51] 5.73 µM | [52] 13.7 µM | [53] 10.1 µM | [54] 24.9 µM | [55] 11.7 µM | [56] 13.7 µM | [57] 8.15 µM | [58] 8.39 µM | [60] 4.5 µM | [62] 17.6 µM | [63] 14.7 µM | [64] 3.47 µM | [65] 10.2 µM | [66] 16.4 µM | [67] 11.5 µM
3.92 µM: [16]
